Data as given in patent US7173040B2, “Farnesyl transferase inhibiting 6-[(substituted phenyl)methyl]-quinoline and quinazoline derinazoline derivatives” (Janssen Pharmaceutica N.V., priority 2000, dated 2007).

Row | melting point [°C] | Structure (SMILES)
1 | 150 | CC(C)OC(=O)c1cccc(C(O)(c2ccc3c(c2)c(-c2cccc(Cl)c2)cc(=O)n3C)c2cncn2C)c1 (stereo not drawn) [Example B45a, 1-methylethyl 3-[[4-(3-chlorophenyl)-1,2-dihydro-1-methyl-2-oxo-6-quinolinyl]hydroxy(1-methyl-1H-imidazol-5-yl)methyl]-benzoate]
2 | 150 | Cn1cncc1C(O)(c1cccc(CO)c1)c1ccc2c(c1)c(-c1cccc(Cl)c1)cc(=O)n2C (stereo not drawn) [Example B45b, 4-(3-chlorophenyl)-6-[hydroxy[3-(hydroxymethyl)phenyl](1-methyl-1H-imidazol-5-yl)methyl]-1-methyl-2(1H)-quinolinone]
3 | 201 | Cn1cnnc1C(O)(c1ccc(I)cc1)c1ccc2c(c1)C(c1cccc(Cl)c1)Nc1nnnn1-2 (stereo not drawn) [Example B46, 5-(3-chlorophenyl)-4,5-dihydro-α-(4-iodophenyl)-α-(4-methyl-4H-1,2,4-triazol-3-yl)-tetrazolo[1,5-a]quinazoline-7-methanol]
